Reference: patent publication US6221870A, “Ergoline derivatives and their use as somatostatin receptor antagonists” (Novartis AG, priority 1997, dated 2001)

Experiments:
mice = assay: Matched Pairs Situation test in mice; format: in vivo, mouse; details: for lowering of aggressive behavior (Matched Pairs Situation test), standard drugs: 3-30 mg/kg s.c.; for potency compared with the compound of example 1, Matched Pairs Situation test: standard drugs at 3-30 mg/kg s.c.
[1] = known drawback; cited from earlier work
intruder mouse = intruder mouse test; format: in vivo; details: for potency compared with the compound of example 1, intruder mouse test: standard drugs at 3-30 mg/kg s.c.
[2] = molecular target: T1, native human sst1 receptors (Homo sapiens, UniProt P30872); assay: affinity for native human sst1 receptors (radioligand binding); details: read-out: pIC50, affinity for native human sst1 receptors (converted)
T1 construct: native and recombinant human sst1 receptors
T1 sequence (P30872 whole entry): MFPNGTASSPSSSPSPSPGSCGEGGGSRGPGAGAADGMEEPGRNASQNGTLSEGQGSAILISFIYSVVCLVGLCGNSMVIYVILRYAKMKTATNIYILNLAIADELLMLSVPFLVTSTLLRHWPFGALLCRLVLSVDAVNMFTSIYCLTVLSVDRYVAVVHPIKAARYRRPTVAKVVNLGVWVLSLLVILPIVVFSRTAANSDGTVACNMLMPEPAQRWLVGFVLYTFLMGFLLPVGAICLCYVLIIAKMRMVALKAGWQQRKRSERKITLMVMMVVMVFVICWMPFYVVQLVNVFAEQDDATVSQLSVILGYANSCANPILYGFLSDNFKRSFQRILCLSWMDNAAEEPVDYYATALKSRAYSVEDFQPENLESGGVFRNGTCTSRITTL
Source text: (§1) In particular the agents of the invention bind to somatostatin receptors. More particularly they are selective antagonists at Somatostatin sst1 receptors, previously called SSTR-1 receptors (see Hoyer et al., TIPS, 1995, 16; 86-88), as determined in radioligand binding and second messenger studies [see for example K Kaupmann et al., FEBS LETTERS 1993, 331: 53-59].
(§2) For all above indications the preferred compound is the compound of example 1 below.

[3] = molecular target: T2, native rat sst1 receptors (Rattus norvegicus, UniProt P28646); assay: affinity for native rat sst1 receptors (radioligand binding); details: read-out: pIC50, affinity for native rat sst1 receptors (converted)
T2 construct: native rat sst1 receptors
T2 sequence (P28646 whole entry): as the sequence (P30872 whole entry) above, with S8P, S11T, P16S, S20G, G25V, G26C, A32S, A45S, T385A, T389S counted along it
Source text: as §1, §2

[4] = system: neurotransmitter receptors; assay: activity for a wide range of neurotransmitter receptors; format: binding
Source text: as §2

[5] = molecular target: T3, recombinant human sst1 receptors (Homo sapiens, UniProt P30872); assay: affinity for recombinant human sst1 receptors (radioligand binding); details: read-out: pIC50, affinity for recombinant human sst1 receptors (converted)
T3 construct: expressed in transfected cells
T3 sequence (P30872 whole entry): as the sequence (P30872 whole entry) above
Source text: as §1, §2

Compound | lowering of aggressive behavior (Matched Pairs Situation test), standard drugs (mice) | potency compared with the compound of example 1, Matched Pairs Situation test (mice) | therapeutic window [1] | potency compared with the compound of example 1, intruder mouse test (intruder mouse) | IC50 [2] | aggressive behavior in the Matched Pairs Situation test (mice; 3-30 mg/kg p.o.) | IC50 [3] | activity for a wide range of neurotransmitter receptors [4] | IC50 [5] | social withdrawal in the intruder mouse test (intruder mouse; 3-30 mg/kg p.o.)
NC(=O)N1c2ccccc2C=Cc2ccccc21 [carbamazepine] | These effects are also observed | less potent | narrow therapeutic window | less potent |  |  |  |  |  | 
CN1C[C@H](C(=O)N2CCN(c3cccc(=O)n3C)CC2)C[C@@H]2c3cccc4[nH]c(Br)c(c34)C[C@H]21 [Example 1, [5R, 8R, 10R]-2-Bromo-9,10-dihydro-lysergic-acid-4-(1-methyl-1H-pyrid-6-on-2-yl)-piperazine-amide] |  |  |  |  | 1 nM | clearly lowers aggressive behavior | 0.2 nM | without significant activity | 1.58 nM | reverses social withdrawal
lithium | These effects are also observed | less potent | narrow therapeutic window | less potent |  |  |  |  |  | 
